# In PubChem BioAssay AID2060902 (Molecular Pharmacology Branch, DTP, NCI, 2025):
# Tested on: 485368-065-R3-J5-PDC spheroids with HUVEC/MSC, viability
# Assay: Anticancer human tumor 485368-065-R3-J5-PDC patient-derived pancreatic carcinoma cell line growth inhibition [RAS]
# Conditions: for IC50: curve of first compound; for viability, T/C: stronger effect = lower value
# Procedure, shortened: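 Agents were tested in combination matrices in half-log decrements from a top concentration at or near clinical Cmax (10 microM if undetermined). Targets were multi-cell spheroids of tumour lines plus HUVEC and MSC stromal cells.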
# [1] = second compound 0.000949 µM, first compound 0.0316 µM
# [2] = second compound 0.000949 µM, first compound 0.1 µM
# [3] = second compound 0.000949 µM, first compound 0.316 µM
# [4] = second compound 0.000949 µM, first compound 1 µM
# [5] = second compound 0.003 µM, first compound 0.0316 µM
# [6] = second compound 0.003 µM, first compound 0.1 µM
# [7] = second compound 0.003 µM, first compound 0.316 µM
# [8] = second compound 0.003 µM, first compound 1 µM
# [9] = second compound 0.00949 µM, first compound 0.0316 µM
# [10] = second compound 0.00949 µM, first compound 0.1 µM
# [11] = second compound 0.00949 µM, first compound 0.316 µM
# [12] = second compound 0.00949 µM, first compound 1 µM
# [13] = second compound 0.03 µM, first compound 0.0316 µM
# [14] = second compound 0.03 µM, first compound 0.1 µM
# [15] = second compound 0.03 µM, first compound 0.316 µM
# [16] = second compound 0.03 µM, first compound 1 µM
# [17] = second compound 0.0949 µM, first compound 0.0316 µM
# [18] = second compound 0.0949 µM, first compound 0.1 µM
# [19] = second compound 0.0949 µM, first compound 0.316 µM
# [20] = second compound 0.0949 µM, first compound 1 µM
# [21] = second compound 0.3 µM, first compound 0.0316 µM
# [22] = second compound 0.3 µM, first compound 0.1 µM
# [23] = second compound 0.3 µM, first compound 0.316 µM
# [24] = second compound 0.3 µM, first compound 1 µM
# 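Also: spheroids exposed to agents for seven days before readout.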
smiles,measurement,setting,value
O=C(c1ccc(F)c(F)c1Nc1ccc(I)cc1F)N1CC(O)([C@@H]2CCCCN2)C1 + CCn1c(-c2cccnc2C(C)OC)c2c3cc(ccc31)N1CCOC(CC(NC(=O)C(C(C)C)N(C)C(=O)C3(F)CCN(C(=O)C#CC(C)(C)N(C)C)CC3)C(=O)N3CCCC(N3)C(=O)OCC(C)(C)C2)C1,IC50,second compound 0.000949 µM,58.6 nM
same,IC50,second compound 0.003 µM,66.5 nM
same,IC50,second compound 0.00949 µM,59.5 nM
same,IC50,second compound 0.03 µM,54.5 nM
same,IC50,second compound 0.0949 µM,65.5 nM
same,IC50,second compound 0.3 µM,40.4 nM
same,"viability, T/C","second compound 0.000949 µM, first compound 0.00316 µM",101%
same,"viability, T/C","second compound 0.000949 µM, first compound 0.01 µM",78.4%
same,"viability, T/C",[1],64.1%
same,"viability, T/C",[2],37.7%
same,"viability, T/C",[3],26.4%
same,"viability, T/C",[4],11.7%
same,"viability, T/C","second compound 0.003 µM, first compound 0.00316 µM",97.3%
same,"viability, T/C","second compound 0.003 µM, first compound 0.01 µM",88.4%
same,"viability, T/C",[5],60.1%
same,"viability, T/C",[6],40.7%
same,"viability, T/C",[7],31.5%
same,"viability, T/C",[8],13.9%
same,"viability, T/C","second compound 0.00949 µM, first compound 0.00316 µM",87%
same,"viability, T/C","second compound 0.00949 µM, first compound 0.01 µM",73.6%
same,"viability, T/C",[9],60.9%
same,"viability, T/C",[10],39.4%
same,"viability, T/C",[11],30.1%
same,"viability, T/C",[12],14%
same,"viability, T/C","second compound 0.03 µM, first compound 0.00316 µM",89.6%
same,"viability, T/C","second compound 0.03 µM, first compound 0.01 µM",76.8%
same,"viability, T/C",[13],62.5%
same,"viability, T/C",[14],36.8%
same,"viability, T/C",[15],24%
same,"viability, T/C",[16],15%
same,"viability, T/C","second compound 0.0949 µM, first compound 0.00316 µM",88.3%
same,"viability, T/C","second compound 0.0949 µM, first compound 0.01 µM",75.3%
same,"viability, T/C",[17],64%
same,"viability, T/C",[18],39.8%
same,"viability, T/C",[19],28.5%
same,"viability, T/C",[20],10%
same,"viability, T/C","second compound 0.3 µM, first compound 0.00316 µM",91.4%
same,"viability, T/C","second compound 0.3 µM, first compound 0.01 µM",74.7%
same,"viability, T/C",[21],51.1%
same,"viability, T/C",[22],36.3%
same,"viability, T/C",[23],23.5%
same,"viability, T/C",[24],8.18%
CC(Nc1ccc2c(c1)OCCn1cc(N3C(=O)OCC3C(F)F)nc1-2)C(N)=O (configuration not stated) + C#Cc1c(F)ccc2cc(O)cc(-c3ncc4c(N5CC6CCC(C5)N6)nc(OCC56CCCN5CC(F)C6)nc4c3F)c12,IC50,second compound 0.0316 µM,> 10000 nM
same,IC50,second compound 0.1 µM,> 10000 nM
same,IC50,second compound 0.316 µM,9820 nM
same,IC50,second compound 1 µM,> 10000 nM
same,IC50,second compound 3.16 µM,1610 nM
same,IC50,second compound 10 µM,< 31.6 nM
same,"viability, T/C","second compound 0.0316 µM, first compound 0.0316 µM",95.9%
same,"viability, T/C","second compound 0.0316 µM, first compound 0.1 µM",93.4%
same,"viability, T/C","second compound 0.0316 µM, first compound 0.316 µM",85.4%
same,"viability, T/C","second compound 0.0316 µM, first compound 1 µM",80.1%
same,"viability, T/C","second compound 0.0316 µM, first compound 3.16 µM",74.5%
same,"viability, T/C","second compound 0.0316 µM, first compound 10 µM",51.9%
same,"viability, T/C","second compound 0.1 µM, first compound 0.0316 µM",101%
same,"viability, T/C","second compound 0.1 µM, first compound 0.1 µM",90.3%
same,"viability, T/C","second compound 0.1 µM, first compound 0.316 µM",82.4%
same,"viability, T/C","second compound 0.1 µM, first compound 1 µM",91.2%
same,"viability, T/C","second compound 0.1 µM, first compound 3.16 µM",77.9%
same,"viability, T/C","second compound 0.1 µM, first compound 10 µM",57.2%
same,"viability, T/C","second compound 0.316 µM, first compound 0.0316 µM",92.7%
same,"viability, T/C","second compound 0.316 µM, first compound 0.1 µM",93.5%
same,"viability, T/C","second compound 0.316 µM, first compound 0.316 µM",91.5%
same,"viability, T/C","second compound 0.316 µM, first compound 1 µM",85.7%
same,"viability, T/C","second compound 0.316 µM, first compound 3.16 µM",81.7%
same,"viability, T/C","second compound 0.316 µM, first compound 10 µM",48.8%
same,"viability, T/C","second compound 1 µM, first compound 0.0316 µM",83.4%
same,"viability, T/C","second compound 1 µM, first compound 0.1 µM",85.8%
same,"viability, T/C","second compound 1 µM, first compound 0.316 µM",90.7%
same,"viability, T/C","second compound 1 µM, first compound 1 µM",72.6%
same,"viability, T/C","second compound 1 µM, first compound 3.16 µM",69.1%
same,"viability, T/C","second compound 1 µM, first compound 10 µM",51.5%
same,"viability, T/C","second compound 3.16 µM, first compound 0.0316 µM",73.4%
same,"viability, T/C","second compound 3.16 µM, first compound 0.1 µM",56.2%
same,"viability, T/C","second compound 3.16 µM, first compound 0.316 µM",54.5%
same,"viability, T/C","second compound 3.16 µM, first compound 1 µM",60.5%
same,"viability, T/C","second compound 3.16 µM, first compound 3.16 µM",46.8%
same,"viability, T/C","second compound 3.16 µM, first compound 10 µM",32.8%
same,"viability, T/C","second compound 10 µM, first compound 0.0316 µM",33.8%
same,"viability, T/C","second compound 10 µM, first compound 0.1 µM",31%
same,"viability, T/C","second compound 10 µM, first compound 0.316 µM",24.6%
same,"viability, T/C","second compound 10 µM, first compound 1 µM",25.9%
same,"viability, T/C","second compound 10 µM, first compound 3.16 µM",21%
same,"viability, T/C","second compound 10 µM, first compound 10 µM",18.6%
CCN1CCN(Cc2ccc(Nc3ncc(F)c(-c4cc(F)c5nc(C)n(C(C)C)c5c4)n3)nc2)CC1,"viability, T/C",compound 0.00316 µM,99.7% [middle of 4 runs]
same,"viability, T/C",compound 0.01 µM,91.6% [middle of 4 runs]
same,"viability, T/C",compound 0.0316 µM,90.2% [middle of 4 runs]
same,"viability, T/C",compound 0.1 µM,75.6% [middle of 4 runs]
same,"viability, T/C",compound 0.316 µM,59.6% [middle of 4 runs]
same,"viability, T/C",compound 1 µM,45.4% [middle of 4 runs]
C[C@@H](NC(=O)c1ncnc(N)c1Cl)c1ncc(C(=O)Nc2cc(C(F)(F)F)c(Cl)cn2)s1 + CCn1c(-c2cc(N3CCN(C)CC3)cnc2C(C)OC)c2c3cc(ccc31)-c1csc(n1)CC(NC(=O)C1CC1C)C(=O)N1CCCC(N1)C(=O)OCC(C)(C)C2,IC50,second compound 0.000949 µM,31.6 nM
same,IC50,second compound 0.003 µM,< 31.6 nM
same,IC50,second compound 0.00949 µM,< 31.6 nM
same,IC50,second compound 0.03 µM,< 31.6 nM
same,IC50,second compound 0.0949 µM,< 31.6 nM
same,IC50,second compound 0.3 µM,< 31.6 nM
same,"viability, T/C",[1],41.3%
same,"viability, T/C",[2],46.5%
same,"viability, T/C",[3],55%
same,"viability, T/C",[4],51.5%
same,"viability, T/C","second compound 0.000949 µM, first compound 3.16 µM",45.7%
same,"viability, T/C","second compound 0.000949 µM, first compound 10 µM",38%
same,"viability, T/C",[5],22.9%
same,"viability, T/C",[6],24.4%
same,"viability, T/C",[7],26.9%
same,"viability, T/C",[8],28.8%
same,"viability, T/C","second compound 0.003 µM, first compound 3.16 µM",24.8%
same,"viability, T/C","second compound 0.003 µM, first compound 10 µM",24.8%
same,"viability, T/C",[9],15.6%
same,"viability, T/C",[10],16.8%
same,"viability, T/C",[11],17.4%
same,"viability, T/C",[12],18.4%
same,"viability, T/C","second compound 0.00949 µM, first compound 3.16 µM",18.9%
same,"viability, T/C","second compound 0.00949 µM, first compound 10 µM",18.6%
same,"viability, T/C",[13],14%
same,"viability, T/C",[14],14.2%
same,"viability, T/C",[15],16.5%
same,"viability, T/C",[16],16.2%
same,"viability, T/C","second compound 0.03 µM, first compound 3.16 µM",15.4%
same,"viability, T/C","second compound 0.03 µM, first compound 10 µM",12.7%
same,"viability, T/C",[17],10%
same,"viability, T/C",[18],11%
same,"viability, T/C",[19],10.4%
same,"viability, T/C",[20],11.8%
same,"viability, T/C","second compound 0.0949 µM, first compound 3.16 µM",16.1%
same,"viability, T/C","second compound 0.0949 µM, first compound 10 µM",10.8%
same,"viability, T/C",[21],9.44%
same,"viability, T/C",[22],10.4%
same,"viability, T/C",[23],11.2%
same,"viability, T/C",[24],11%
same,"viability, T/C","second compound 0.3 µM, first compound 3.16 µM",13.1%
same,"viability, T/C","second compound 0.3 µM, first compound 10 µM",11.4%
